Among the test systems are 786-0; BT-549; CAKI-1; CCRF-CEM; HCT-116; HCT-15; HOP-92; M14; MDA-MB-231; NCI-H23; NCI-H522; OVCAR-3; OVCAR-5; RPMI-8226; SW-620; T47D; TK-10; UACC-257; UO-31.
Assay in all cases: growth of human tumour cells (NCI), 48 h

Molecules are shown by their SMILES. Several values for one entry are separate records, joined by “and”; a condition that tells them apart may be missing. Equal entries are not always repeated.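 Protocol summary: plate cells (96-well), add compound at 5 concentrations, incubate 48 h, interpolate endpoints linearly. The concentration for 50% growth inhibition is given as GI50.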 Activity calls are given as the source filed them. Rule as the data show it: active = GI50 up to about 1.1 µM and inactive = higher.

For `CN(C)C(=S)NC(=S)Nc1ccc2ccccc2c1`, the GI50 in the experiment with 786-0 is 12.8 µM (inactive); with BT-549, 16 µM (inactive); with CAKI-1, 13.9 µM (inactive); in the experiment on CCRF-CEM it was 0.804 µM (active); in the experiment with HCT-116, 6.65 µM (inactive); in the experiment with HCT-15, 9.89 µM. Moreover, the GI50 with HOP-92 is 17 µM (inactive); with M14, 12.7 µM (inactive); with MDA-MB-231, 20 µM (inactive); in the experiment on NCI-H23 it was 9.64 µM (inactive); with NCI-H522 it was 5.7 µM (inactive); in the experiment on OVCAR-3, 14.4 µM (inactive). The GI50 was 21.2 µM (inactive) with OVCAR-5; 5.56 µM (inactive) in the experiment on RPMI-8226; 9.89 µM (inactive) in the experiment on SW-620; 9.55 µM (inactive) in the experiment on T47D; 22.7 µM (inactive) in the experiment with TK-10; 8.95 µM (inactive) in the experiment with UACC-257. For the same compound, the GI50 in the experiment with UO-31 was 16.1 µM (inactive).

For the compound `COc1ccc(-c2coc3c4c(ccc3c2=O)OCO4)cc1OC`, the GI50 in the experiment with 786-0 is 35.4 µM (inactive); with BT-549, 14.9 µM (inactive); with CAKI-1, 91.6 µM (inactive); with CCRF-CEM, > 100 µM (inactive); in the experiment with HCT-116 it was > 100 µM (inactive); with HCT-15 it was 18 µM. The GI50 in the experiment on HOP-92 is 36.3 µM (inactive); in the experiment with M14, > 100 µM (inactive); with MDA-MB-231 it was 45.4 µM (inactive); in the experiment on NCI-H23 it was 25 µM (inactive); with NCI-H522, 56.9 µM (inactive); in the experiment with OVCAR-3 it was 23.8 µM (inactive). The GI50 in the experiment on OVCAR-5 was > 100 µM (inactive); in the experiment on RPMI-8226 it was > 100 µM (inactive); in the experiment on SW-620, > 100 µM (inactive); with T47D it was > 100 µM (inactive); with TK-10 it was 63 µM (inactive); in the experiment on UACC-257, > 100 µM (inactive). Also, the GI50 in the experiment with UO-31 was 99.8 µM (inactive).

For the compound `CCOC(=O)/C=C(/C(=O)OCC)n1ccc(=O)n(Cc2cnnn2COCCOC(C)=O)c1=O`, the GI50 is 10 µM (inactive) with 786-0; 19.5 µM (inactive) with BT-549; 5.93 µM (inactive) in the experiment on CAKI-1; 0.713 µM (active) in the experiment on CCRF-CEM; 18.9 µM (inactive) with HCT-116; 8.77 µM in the experiment on HCT-15. The GI50 is 2.08 µM (inactive) with HOP-92; 17.1 µM (inactive) in the experiment with M14; 18.6 µM (inactive) in the experiment on MDA-MB-231; 17.1 µM (inactive) with NCI-H23; 1.95 µM (inactive) with NCI-H522; 14.9 µM (inactive) in the experiment on OVCAR-3. Further, the GI50 in the experiment on OVCAR-5 was 18.2 µM (inactive); with RPMI-8226, 10.9 µM (inactive); with SW-620, 3.98 µM (inactive); in the experiment on T47D it was 9.57 µM (inactive); in the experiment on TK-10 it was 7.26 µM (inactive); with UACC-257, 16.8 µM (inactive). Moreover, the GI50 in the experiment with UO-31 is 16 µM (inactive).

With `COc1cc(C2SCC(=O)N2c2ccc(Cl)cc2)cc(I)c1O` (stereo not given), the GI50 with 786-0 is > 100 µM (inactive); with BT-549 it was 48.8 µM (inactive); with CAKI-1, 6.43 µM (inactive); with CCRF-CEM, 46.1 µM (inactive); with HCT-116, 18.5 µM (inactive); with HOP-92, 57 µM (inactive). In addition, the GI50 with M14 is 4.86 µM (inactive); in the experiment on MDA-MB-231 it was > 100 µM (inactive); in the experiment on NCI-H23 it was 25.5 µM (inactive); in the experiment on NCI-H522, 55.8 µM (inactive); in the experiment on OVCAR-3 it was 33.8 µM (inactive); in the experiment on OVCAR-5 it was > 100 µM (inactive). Also, the GI50 was 5.85 µM (inactive) in the experiment on RPMI-8226; > 100 µM (inactive) with SW-620; 5.45 µM (inactive) in the experiment with T47D; > 94.6 µM (inactive) in the experiment with TK-10; 11.8 µM (inactive) in the experiment with UACC-257; > 100 µM (inactive) in the experiment with UO-31.

`COc1ccc(-c2nc(N(C)C)c3ccccc3n2)cc1`: the GI50 was 10.9 µM (inactive) in the experiment on 786-0; 14.2 µM (inactive) with BT-549; 14 µM (inactive) with CAKI-1; 4.57 µM (inactive) in the experiment with HCT-116; 12.1 µM in the experiment with HCT-15; 12.4 µM (inactive) with HOP-92. Moreover, the GI50 with M14 is 14.1 µM (inactive); in the experiment with MDA-MB-231 it was 28.4 µM (inactive); in the experiment on NCI-H23, 16 µM (inactive); in the experiment with NCI-H522, 7.96 µM (inactive); in the experiment with OVCAR-5, 14 µM (inactive); in the experiment on RPMI-8226, 5.56 µM (inactive). The GI50 in the experiment on SW-620 was 9.48 µM (inactive); with T47D it was 10.8 µM (inactive); with TK-10 it was 18.3 µM (inactive); with UACC-257 it was 16.4 µM (inactive); in the experiment on UO-31 it was 3.36 µM (inactive).

Turning to `COC(=O)c1c(C(=O)OC)c2c3ccccc3n(C)c2c2c1c1ccccc1n2C`, the GI50 was 34.2 µM (inactive) with 786-0; > 100 µM (inactive) with BT-549; > 100 µM (inactive) with CAKI-1; > 100 µM (inactive) in the experiment on CCRF-CEM; > 100 µM (inactive) in the experiment with HCT-116; above 100 µM with HCT-15. The GI50 in the experiment with HOP-92 is > 100 µM (inactive); in the experiment with M14 it was > 100 µM (inactive); in the experiment with MDA-MB-231, 17.1 µM (inactive); in the experiment on NCI-H23 it was > 100 µM (inactive); in the experiment on NCI-H522 it was 58.1 µM (inactive); with OVCAR-5, 61.1 µM (inactive). Besides, the GI50 is > 100 µM (inactive) with RPMI-8226; > 100 µM (inactive) in the experiment with SW-620; > 100 µM (inactive) with T47D; > 100 µM (inactive) in the experiment with TK-10; > 100 µM (inactive) with UACC-257; 16.2 µM (inactive) with UO-31.

Turning to `COC(=O)C(=O)C(C(=O)C(=O)Nc1ccccc1OC)c1nc2ccc([N+](=O)[O-])cc2nc1O` (stereo not given), the GI50 is > 100 µM (inactive) in the experiment with 786-0; > 100 µM (inactive) with BT-549; > 100 µM (inactive) in the experiment on CAKI-1; > 100 µM (inactive) in the experiment on CCRF-CEM; > 100 µM (inactive) with HCT-116; 41.4 µM with HCT-15. Further, the GI50 with HOP-92 is > 100 µM (inactive); in the experiment on M14, > 100 µM (inactive); in the experiment with MDA-MB-231, > 100 µM (inactive); with NCI-H522 it was 65.2 µM (inactive); in the experiment on OVCAR-3, > 100 µM (inactive); in the experiment on OVCAR-5 it was > 100 µM (inactive). Besides, the GI50 with RPMI-8226 was > 100 µM (inactive); in the experiment on SW-620 it was > 100 µM (inactive); with T47D, > 100 µM (inactive); in the experiment with TK-10, > 100 µM (inactive); in the experiment on UACC-257, > 100 µM (inactive); with UO-31, 45.3 µM (inactive).

Regarding `COc1ccc(C(=C2C(=O)OC(=O)C2=C(C)C)c2ccc(OC)cc2)cc1`, the GI50 in the experiment with 786-0 was > 100 µM (inactive); in the experiment with BT-549, 70.5 µM (inactive); in the experiment with CAKI-1 it was > 100 µM (inactive); in the experiment with HCT-116 it was > 100 µM (inactive); in the experiment on HCT-15, 51.9 µM; in the experiment with HOP-92, > 100 µM (inactive). In addition, the GI50 in the experiment with M14 was 85.1 µM (inactive); in the experiment with MDA-MB-231 it was > 100 µM (inactive); with NCI-H23, > 100 µM (inactive); in the experiment on NCI-H522 it was 23.2 µM (inactive); with OVCAR-3 it was 22 µM (inactive); in the experiment with OVCAR-5, 79.1 µM (inactive). For the same compound, the GI50 in the experiment on RPMI-8226 is 28.8 µM (inactive); in the experiment with SW-620 it was > 100 µM (inactive); with T47D it was > 100 µM (inactive); in the experiment with TK-10 it was > 100 µM (inactive); in the experiment with UACC-257 it was > 100 µM (inactive); in the experiment on UO-31, > 100 µM (inactive).

On to `CCC(C)C1=C(O)[N+]2([O-])Oc3ccc(-c4c(O)c(O)c(-c5ccc(OC(C)=O)cc5)c(OC(C)=O)c4OC(C)=O)cc3OC2(C(C)CC)C(=O)N1O` (stereo not given), for which the GI50 with 786-0 is > 50 µM (inactive); in the experiment with BT-549, 45.6 µM (inactive); with CAKI-1, > 50 µM (inactive); in the experiment with CCRF-CEM it was 19.3 µM (inactive) and 19.2 µM (inactive); with HCT-15, above 50 µM; in the experiment with HOP-92 it was 8.17 µM (inactive) and 10 µM (inactive). Also, the GI50 in the experiment on M14 is > 50 µM (inactive); in the experiment on MDA-MB-231, > 50 µM (inactive); with NCI-H23, > 50 µM (inactive); with NCI-H522, 14.4 µM (inactive) and 16.1 µM (inactive); with OVCAR-3, > 50 µM (inactive); in the experiment on OVCAR-5, > 50 µM (inactive). Further, the GI50 with RPMI-8226 was > 50 µM (inactive) and 33.8 µM (inactive); with SW-620, 24.2 µM (inactive); in the experiment on T47D, 42.7 µM (inactive); in the experiment on TK-10, > 50 µM (inactive); in the experiment on UACC-257 it was > 50 µM (inactive); in the experiment with UO-31 it was > 50 µM (inactive).

For `C=C(Cl)C(Cl)(CCl)CCC(Br)C(C)(C)Br` (stereo not given), the GI50 was > 10 µM (inactive) in the experiment on 786-0; > 10 µM (inactive) with BT-549; > 10 µM (inactive) in the experiment on CAKI-1; > 10 µM (inactive) in the experiment on CCRF-CEM; > 10 µM (inactive) in the experiment with HCT-116; above 10 µM in the experiment with HCT-15. The GI50 in the experiment with HOP-92, in the experiment on M14, with MDA-MB-231, in the experiment with NCI-H23, in the experiment with NCI-H522 and in the experiment with OVCAR-3 was > 10 µM (inactive) throughout. The GI50 in the experiment with OVCAR-5, in the experiment with RPMI-8226, in the experiment with SW-620, with T47D, in the experiment on TK-10 and in the experiment on UO-31 was > 10 µM (inactive) each time.

For `Cc1cc(C)nc(NS(=O)(=O)c2ccc(Nc3c4ccccc4nc4c(C(=O)NC(CO)(CO)CO)cccc34)cc2)n1`, the GI50 is 29 µM (inactive) with 786-0; 21.8 µM (inactive) with BT-549; 89.3 µM (inactive) with CAKI-1; 16.1 µM (inactive) in the experiment on CCRF-CEM; 52 µM in the experiment on HCT-15; 23.6 µM (inactive) in the experiment with HOP-92. Further, the GI50 was 37.2 µM (inactive) with M14; 32.1 µM (inactive) in the experiment with MDA-MB-231; 33.7 µM (inactive) in the experiment on NCI-H23; 13.9 µM (inactive) in the experiment with NCI-H522; 29.3 µM (inactive) in the experiment with OVCAR-3; 31.5 µM (inactive) with OVCAR-5. The GI50 was 22.8 µM (inactive) in the experiment on RPMI-8226; 38.5 µM (inactive) in the experiment on SW-620; 37.8 µM (inactive) in the experiment on T47D; 31.3 µM (inactive) in the experiment on TK-10; 42 µM (inactive) in the experiment with UACC-257; 85.1 µM (inactive) in the experiment on UO-31.

These data come from ChEMBL document CHEMBL1201862, “PubChem BioAssay data set” (2004).
